Results on four molecules are retold here after patent US9988430B2, “Stable GLP-1 based GLP-1/glucagon receptor co-agonists” (Novo Nordisk A/S, priority 2014, dated 2018).

The structures appear in SMILES notation. *1 amine or outer side, *2 acyl side, *3 side chain or, on linkers, in order; H or OH if unused. Where a SMILES comes first, the peptide text is derived from it. Bridges are numbered along the chain shown (N, C = ends). Roman numbers before positions name the chains, in order. Side-chain parts run from the residue outwards. [ ]: non-standard residue; d: D form. The star is where a group is joined. C18 diacid = O=C(O)CCCCCCCCCCCCCCCCC(=O)*; γGlu = O=C(O)[C@H](CCC(=O)[*:2])N[*:1]; Desaminohistidyl = O=C(CCc1c[nH]cn1)*; Ac4c = NC1(C(=O)O)CCC1; AEEA = NCCOCCOCC(=O)O; Aib = CC(C)(N)C(=O)O

In the test the target is T1, human GLP-1 receptor (Homo sapiens, UniProt P43220).
T1 construct: expressed in transfected cells; host or cells: membranes of BHK cells, parent line BHKTS13, clone FCW467-12A
T1 sequence (P43220 24-463): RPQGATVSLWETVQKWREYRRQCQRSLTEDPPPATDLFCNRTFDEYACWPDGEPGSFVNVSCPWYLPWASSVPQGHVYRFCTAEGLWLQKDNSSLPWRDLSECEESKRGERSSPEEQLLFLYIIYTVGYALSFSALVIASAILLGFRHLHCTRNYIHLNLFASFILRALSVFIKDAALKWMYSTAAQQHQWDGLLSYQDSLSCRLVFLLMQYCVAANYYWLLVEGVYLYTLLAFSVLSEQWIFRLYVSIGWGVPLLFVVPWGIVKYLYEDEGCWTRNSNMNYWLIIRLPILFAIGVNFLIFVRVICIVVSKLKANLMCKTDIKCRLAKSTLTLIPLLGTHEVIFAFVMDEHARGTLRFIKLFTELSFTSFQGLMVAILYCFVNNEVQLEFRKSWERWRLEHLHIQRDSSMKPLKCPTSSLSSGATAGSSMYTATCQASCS
Nature of the test: Assay (II)(a): GLP-1 receptor binding, [125I]GLP-1 displacement, SPA on BHK membranes. The settings on record: displacement of [125I]GLP-1, membranes with human GLP-1 receptor; read-out: IC50 GLP-1R. How it is done: Assay (II): GLP-1 and Glucagon Receptor Binding The purpose of this assay is to test the in vitro receptor binding activity of the GLP-1 derivatives of the invention. (a) GLP-1 Receptor Binding The GLP-1 receptor (GLP-1R) binding is a measure of the affinity of a derivative for the human GLP-1 receptor. The GLP-1 receptor binding of each derivatives were determined with competitive binding, displacing [^125I]GLP-1 bound to GLP-1 receptors expressed in cell membranes associated with wheat germ agglutinin (WGA) scintillation proximity assay (SPA) beads. Each derivative was added in a series of concentrations to isolated membranes comprising the human GLP-1 receptor and displacement of the labelled radioligand was monitored. The receptor binding was reported as the concentration at which half of the labelled ligand is displaced from the receptor, the IC^50 value. The following chemicals were used in the assay: MEM w/o phenol red (Gibco 11880-028), Pen/strep (Invitrogen 15140-122), G418 (Invitrogen 10131-027), 1 M Hepes (Gibco 15630), EDTA (Invitrogen 15575-038), PBS (Invitrogen 14190-094), fetal calf serum (Invitrogen 16140-071), EGTA, MgCl2 (Merck 1.05832.1000), Tween 20 (Amresco 0850C335), SPA particles (wheat germ agglutinin (WGA) SPA beads, Perkin Elmer RPNQ0001), [125I]-GLP-1]-(7-36)NH2 (produced in-house), OptiPlate™-96 (Perkin Elmer). Buffer 1 consisted of 20 mM Na-HEPES plus 10 mM EDTA and pH was adjusted to 7.4. Buffer 2 consisted of 20 mM Na-HEPES plus 0.1 mM EDTA and pH was adjusted to 7.4. Assay buffer consisted of 50 mM HEPES supplemented with 5 mM EGTA, 5 mM MgCl2, 0.005% Tween 20 and pH was adjusted to 7.4. A 0.02% albumin stock consisted of HSA dissolved at 0.02% (w/v) in assay buffer. The cells used in this assay (clone FCW467-12A) were BHK cells with BHKTS13 as a parent cell line. The cells express the human GLP-1 receptor. The cells were grown at 5% CO2 in DMEM, 10% fetal calf serum, 1% Pen/Strep (Penicillin/Streptomycin) and 1.0 mg/ml of the selection marker G418. To make a membrane preparation the cells were grown to approximately 80% confluence. The cells were washed twice in phosphate-buffered saline and harvested. The cells were pelleted using a brief centrifugation and the cell pellet was kept on ice. The cell pellet was homogenised with ULTRA-THURRAX dispersing instrument for 20-30 seconds in a suitable amount of buffer 1 (e.g., 10 ml). The homogenate was centrifuged for 15 minutes. The pellet was re-suspended (homogenised) in 10 ml buffer 2 and centrifuged. This step was repeated once more. The resulting pellet was re-suspended in buffer 2 and the protein concentration was determined. The membranes were aliquoted and stored at minus 80° C. • 1. For the receptor binding assay 50 μl of the assay buffer was added to each well of an assay plate. • 2. Test compounds were serially diluted to give the following concentrations: 8×10EE-7 M, 8×10EE-8 M, 8×10EE-9 M, 8×10EE-10 M, 8×10EE-11 M, 8×10EE-12 M and 8×10EE-13 M. Twenty-five μl were added to appropriate wells in the assay plate. • 3. Cell membrane aliquots were thawed and diluted to their working concentration. Fifty μl were added to each well in the assay plate. • 4. WGA SPA beads were suspended in assay buffer at 20 mg/ml. The suspension was diluted to 10 mg/ml in assay buffer just prior to addition to the assay plate. Fifty μl were added to each well in the assay plate. • 5. The incubation was started by adding 25 μl of 480 pM solution of [125I]-GLP-1]-(7-36)NH2 to each well of the assay plate. A 25 μl aliquot was reserved for measuring total counts/well. • 6. The assay plate was incubated for 2 h at 30° C. • 7. The assay plate was centrifuged for 10 min. • 8. The assay plate was read in a Perkin Elmer TopCount NXT instrument. Calculations The data from the TopCount instrument were transferred to GraphPad Prism software. The software averaged the values for the replicates and performed a non-linear regression. IC50 values were calculated by the software and reported in nM. […]
For `CC[C@H](C)[C@H](NC(=O)[C@H](Cc1ccccc1)NC(=O)[C@H](CCC(=O)O)NC(=O)[C@H](CCCNC(=N)N)NC(=O)[C@H](C)NC(=O)[C@H](C)NC(=O)[C@H](CCC(N)=O)NC(=O)[C@H](CCC(=O)O)NC(=O)[C@H](CCC(=O)O)NC(=O)[C@H](CC(C)C)NC(=O)[C@H](Cc1ccc(O)cc1)NC(=O)[C@H](CCCCN)NC(=O)[C@H](CO)NC(=O)[C@@H](NC(=O)[C@H](CC(=O)O)NC(=O)[C@H](CO)NC(=O)[C@@H](NC(=O)[C@H](Cc1ccccc1)NC(=O)[C@@H](NC(=O)CNC(=O)[C@H](Cc1c[nH]cn1)NC(=O)C1(NC(=O)CCc2c[nH]cn2)CCC1)[C@@H](C)O)[C@@H](C)O)C(C)C)C(=O)N[C@@H](C)C(=O)N[C@@H](Cc1c[nH]c2ccccc12)C(=O)N[C@@H](CC(C)C)C(=O)N[C@@H](CC(C)C)C(=O)N[C@@H](CCCCN)C(=O)N[C@@H](CCCCNC(=O)CNC(=O)[C@H](CO)NC(=O)[C@H](CCC(=O)O)NC(=O)CNC(=O)[C@H](CO)NC(=O)CC[C@H](NC(=O)CC[C@H](NC(=O)CCCCCCCCCCCCCCCCC(=O)O)C(=O)O)C(=O)O)C(N)=O` [Example 2, N^ε35-[2-[[(2S)-2-[[(2S)-4-carboxy-2-[[2-[[(2S)-2-[[(4S)-4-carboxy-4-[[(4S)-4-carboxy-4-(17-carboxyheptadecanoylamino)butanoyl]amino]butanoyl]amino]-3-hydroxypropanoyl]amino]acetyl]amino]butanoyl]amino]-3-hydroxypropanoyl]amino]acetyl]-[Imp7,Acb8,His9,Lys18,Glu22,Arg26,Leu33,Lys35]-GLP-1-(7-35)-peptide amide] (I: Desaminohistidyl-[Ac4c]HGTFTSDVSKYLEEQAAREFIAWLLKK-NH2 / II: {C18 diacid-γGlu-γGlu}-SGESG; amide I:28-II:C), the IC50 worked out at 0.1 nM.
The value for `CC[C@H](C)[C@H](NC(=O)[C@H](Cc1ccccc1)NC(=O)[C@H](CCC(=O)O)NC(=O)[C@H](CCCNC(=N)N)NC(=O)[C@H](C)NC(=O)[C@H](C)NC(=O)[C@H](CCCNC(=N)N)NC(=O)CNC(=O)[C@H](CCC(=O)O)NC(=O)[C@H](CC(C)C)NC(=O)[C@H](Cc1ccc(O)cc1)NC(=O)[C@H](CCCCN)NC(=O)[C@H](CO)NC(=O)[C@@H](NC(=O)[C@H](CC(=O)O)NC(=O)[C@H](CO)NC(=O)[C@@H](NC(=O)[C@H](Cc1ccccc1)NC(=O)[C@@H](NC(=O)CNC(=O)[C@H](Cc1c[nH]cn1)NC(=O)[C@H](C)NC(=O)CCc1c[nH]cn1)[C@@H](C)O)[C@@H](C)O)C(C)C)C(=O)N[C@@H](C)C(=O)N[C@@H](Cc1c[nH]c2ccccc12)C(=O)N[C@@H](CC(C)C)C(=O)N[C@@H](CC(C)C)C(=O)N[C@@H](CCCCNC(=O)COCCOCCNC(=O)COCCOCCNC(=O)CC[C@H](NC(=O)CC[C@H](NC(=O)CC[C@H](NC(=O)CCCCCCCCCCCCCCCCC(=O)O)C(=O)O)C(=O)O)C(=O)O)C(=O)NCC(=O)NCC(=O)NCC(=O)O` [Example 11, N^ε34-[2-[2-[2-[[2-[2-[2-[[(4S)-4-carboxy-4-[[(4S)-4-carboxy-4-[[(4S)-4-carboxy-4-(17-carboxyheptadecanoylamino)butanoyl]amino]butanoyl]amino]butanoyl]amino]ethoxy]ethoxy]acetyl]amino]ethoxy]ethoxy]acetyl]-[Imp7,His9,Lys18,Arg23,Arg26,Leu33,Gly36]-GLP-1-(7-37)-peptide] (Desaminohistidyl-AHGTFTSDVSKYLEGRAAREFIAWLLK([AEEA-AEEA-γGlu-γGlu-γGlu-C18 diacid])GGG-OH) was 0.9 nM; that for `CC[C@H](C)[C@H](NC(=O)[C@H](Cc1ccccc1)NC(=O)[C@H](CCC(=O)O)NC(=O)[C@H](CCCNC(=N)N)NC(=O)[C@H](C)NC(=O)[C@H](C)NC(=O)[C@H](CCC(N)=O)NC(=O)[C@H](CCC(=O)O)NC(=O)[C@H](CCC(=O)O)NC(=O)[C@H](CC(C)C)NC(=O)[C@H](Cc1ccc(O)cc1)NC(=O)[C@H](CCCCN)NC(=O)[C@H](CO)NC(=O)[C@H](Cc1ccc(O)cc1)NC(=O)[C@H](CC(=O)O)NC(=O)[C@H](CO)NC(=O)[C@@H](NC(=O)[C@H](Cc1ccccc1)NC(=O)[C@@H](NC(=O)CNC(=O)[C@H](Cc1c[nH]cn1)NC(=O)C(C)(C)NC(=O)CCc1c[nH]cn1)[C@@H](C)O)[C@@H](C)O)C(=O)N[C@@H](C)C(=O)N[C@@H](Cc1c[nH]c2ccccc12)C(=O)N[C@@H](CC(C)C)C(=O)N[C@@H](CC(C)C)C(=O)N[C@@H](CCCCN)C(=O)NCC(=O)N[C@@H](CCCCNC(=O)CNC(=O)[C@H](CO)NC(=O)[C@H](CCC(=O)O)NC(=O)CNC(=O)[C@H](CO)NC(=O)CC[C@H](NC(=O)CC[C@H](NC(=O)CCCCCCCCCCCCCCCCC(=O)O)C(=O)O)C(=O)O)C(=O)NCC(=O)O` [Example 14, N^ε36-[2-[[(2S)-2-[[(2S)-4-carboxy-2-[[2-[[(2S)-2-[[(4S)-4-carboxy-4-[[(4S)-4-carboxy-4-(17-carboxyheptadecanoylamino)butanoyl]amino]butanoyl]amino]-3-hydroxypropanoyl]amino]acetyl]amino]butanoyl]amino]-3-hydroxypropanoyl]amino]acetyl]-[Imp7,Aib8,His9,Tyr16,Lys18,Glu22,Arg26,Leu33,Lys36]-GLP-1-(7-37)-peptide] (I: Desaminohistidyl-[Aib]HGTFTSDYSKYLEEQAAREFIAWLLKGKG-OH / II: {C18 diacid-γGlu-γGlu}-SGESG; amide I:29-II:C) was 3.2 nM; that for `CC[C@H](C)[C@H](NC(=O)[C@H](Cc1ccccc1)NC(=O)[C@H](CCC(=O)O)NC(=O)[C@H](CCCNC(=N)N)NC(=O)[C@H](C)NC(=O)[C@H](C)NC(=O)[C@H](CCC(N)=O)NC(=O)[C@H](CCC(=O)O)NC(=O)[C@H](CCC(=O)O)NC(=O)[C@H](CC(C)C)NC(=O)[C@H](Cc1ccc(O)cc1)NC(=O)[C@H](CCCCN)NC(=O)[C@H](CO)NC(=O)[C@@H](NC(=O)[C@H](CC(=O)O)NC(=O)[C@H](CO)NC(=O)[C@@H](NC(=O)[C@H](Cc1ccccc1)NC(=O)[C@@H](NC(=O)CNC(=O)[C@H](Cc1c[nH]cn1)NC(=O)C(C)(C)NC(=O)CCc1c[nH]cn1)[C@@H](C)O)[C@@H](C)O)C(C)C)C(=O)N[C@@H](C)C(=O)N[C@@H](Cc1c[nH]c2ccccc12)C(=O)N[C@@H](CC(C)C)C(=O)N[C@@H](CC(C)C)C(=O)N[C@@H](CCCCNC(=O)CC[C@H](NC(=O)CC[C@H](NC(=O)[C@H](CO)NC(=O)CNC(=O)[C@H](CCC(=O)O)NC(=O)[C@H](CO)NC(=O)CNC(=O)CCCCCCCCCCCCCCCCC(=O)O)C(=O)O)C(=O)O)C(=O)N[C@H](C(=O)O)[C@@H](C)O` [Example 27, N^ε34-[(4S)-4-carboxy-4-[[(4S)-4-carboxy-4-[[(2S)-2-[[2-[[(2S)-4-carboxy-2-[[(2S)-2-[[2-(17-carboxyheptadecanoylamino)acetyl]amino]-3-hydroxypropanoyl]amino]butanoyl]amino]acetyl]amino]-3-hydroxypropanoyl]amino]butanoyl]amino]butanoyl]-[Imp7,Aib8,His9,Lys18,Glu22,Arg26,Leu33,Thr35]-GLP-1-(7-35)-peptide] (I: Desaminohistidyl-[Aib]HGTFTSDVSKYLEEQAAREFIAWLLKT-OH / II: {C18 diacid}-GSEGS[γGlu][γGlu]; amide I:27-II:C) was 2.3 nM.
